Conditions: mouse, in vivo
Experimental: The mice were slaughtered 3 hours after injection (each group consisted of 3 mice). The materials of liver, kidney, spleen, lungs, small intestines, tumor, surrounding muscle tissue as well as from blood, urine, faeces from large intestine weighing 100 mg each were thoroughly homogenised in glass homogenizers supplementing 4 ml of saline solution. For examination of biological fluids (blood, urine) 0,1 ml of each fluid were taken with subsequent dissolution in 4 ml of saline solution. The resulting homogenates were studied on “Perkin-Elmer” spectrofluorimeter (MPF-44A model).

time interval of tumour accumulation optimal for photodynamic effect according to selectivity: 3 to 18 h
Substance: 13-carboxy-17-[2-carboxyethyl]-15-formyl-17,18-trans-dihydro-3-vinyl-8-ethyl-2,7,12,18-tetramethylporphyrin [purpurin 5]
